From ChEMBL document CHEMBL4342522 (J Med Chem, 2020)
Activity calls are given as the source filed them. The rule behind the calls is not given here.

What was measured:
[1] = Unbound hepatic clearance in mouse liver microsomes; assay type: ADME, Microsome
[2] = Unbound hepatic clearance in rat liver microsomes; assay type: ADME, Microsome
[3] = Unbound hepatic clearance in human liver microsomes; assay type: ADME, Microsome
[4] = tested on: NCI-H1299; test: Antiproliferative activity against human H1299 cells assessed as reduction in cell viability after 5 days by CellTiter-Glo assay; assay type: functional, cell-based; conditions: NCI-H1299, 120 h
[5] = molecular target: T1, Bromodomain-containing protein 4 (Homo sapiens, UniProt O60885); test: biochemical; assay type: cell-based
Description: Inhibition of human N-terminal His6 tagged BRD4 BD1 (57 to 168) residues expressed in Escherichia coli BL21(DE3) cells after 1 hr by TR-FRET assay

[6] = Permeability in dog MDCK cells by PAMPA; assay type: ADME, cell-based, Canis lupus familiaris; conditions: read-out: permeability
[7] = tested on: SKM-1; test: Antiproliferative activity against human SKM1 cells assessed as reduction in cell viability after 5 days by CellTiter-Glo assay; assay type: functional, cell-based; conditions: SKM-1, 120 h
[8] = molecular target: T1, Bromodomain-containing protein 4; test: Inhibition of human N-terminal His6 tagged BRD4 BD2 (352 to 457) residues expressed in Escherichia coli BL21(DE3) cells after 1 hr by TR-FRET assay
[9] = tested on: SKM-1; test: Antitumor activity against human SKM1 cells xenografted in SCID mouse assessed as tumor growth inhibition at 60 mg/kg, po bid by caliper method; assay type: functional, organism-based

Row | CL free [1] [mL/min/kg] | CL free [2] [mL/min/kg] | CL free [3] [mL/min/kg] | IC50 [4] [µM] | Ki [5] [µM] | Papp [6] [×10⁻⁶ cm/s] | IC50 [7] [µM] | Ki [8] [µM] | SMILES | inhibition [9]
1 | 1200 | 1200 | 200 | 0.34 | 0.0065 | 13.8 | 0.0033 | 0.0005 | CCNC(=O)c1cc2c(-c3cc(S(=O)(=O)CC)ccc3Oc3ccccc3Cl)cn(C)c(=O)c2[nH]1 | –
2 | 550 | 650 | 91.7 | 0.79 | 0.14 | 10.7 | 0.011 to 0.012 | 0.0012 | CCNC(=O)c1cc2c(-c3cc(S(C)(=O)=O)ccc3Oc3c(C)cccc3C)cn(C)c(=O)c2[nH]1 | –
3 | 900 | 200 | 75 | 0.88 | 0.16 | 15.2 | 0.024 | 0.0021 | CCNC(=O)c1cc2c(-c3cc(S(=O)(=O)CC)ccc3Oc3c(C)cccc3C(F)F)cn(C)c(=O)c2[nH]1 | –
4 | 900 | 200 | 75 | 1.2 | 0.47 | 15.2 | 0.028 | 0.0058 | CCNC(=O)c1cc2c(-c3cc(S(=O)(=O)CC)ccc3Oc3c(C)cccc3C(F)(F)F)cn(C)c(=O)c2[nH]1 | –
5 | 483 | 433 | 117 | 3.6 | 0.25 | 3.59 | 0.068 | 0.0043 | CCNC(=O)c1cc2c(-c3cc(S(C)(=O)=O)ccc3Nc3c(C)cccc3C)cn(C)c(=O)c2[nH]1 | –
6 | 817 | 1530 | 683 | 0.73 | 0.069 | 15.3 | 0.037 | 0.0032 | CCNC(=O)c1cc2c(-c3cc(S(=O)(=O)CC)ccc3Oc3c(C)cccc3C#N)cn(C)c(=O)c2[nH]1 | –
7 | 2000 | 1580 | 783 | 0.7 | 0.082 | 1.46 | 0.11 | 0.0008 | CCNC(=O)c1cc2c(-c3cc(S(=O)(=O)CC)ccc3Oc3c(C)cc(Cl)cc3C)cn(C)c(=O)c2[nH]1 | –
8 | 2830 | 1080 | 617 | 1.2 | 0.16 | 6.3 | 0.011 | 0.0006 | CCNC(=O)c1cc2c(-c3cc(C(C)(C)O)ccc3Oc3c(C)cccc3C)cn(C)c(=O)c2[nH]1 | –
9 | 917 | 467 | 167 | 0.81 | 0.079 | 6.12 | 0.014 | 0.0013 | CCNC(=O)c1cc2c(-c3cc(S(=O)(=O)CC)ccc3Oc3c(C)cc(F)cc3C)cn(C)c(=O)c2[nH]1 | –
10 | 1720 | 1780 | 300 | 0.73 | 0.038 | 8.33 | 0.02 | 0.0006 | CCNC(=O)c1cc2c(-c3cc(S(=O)(=O)C4CC4)ccc3Oc3c(C)cccc3C)cn(C)c(=O)c2[nH]1 | –
11 | < 103 | 188 | 50 | 0.11 | 0.0066 | 3.18 | 0.031 | 0.0007 | CCNC(=O)c1cc2c(-c3cc(S(=O)(=O)CC)ccc3Oc3ccc(F)cc3F)cn(C)c(=O)c2[nH]1 | –
12 | 1880 | 1350 | 267 | 0.73 | 0.045 | 10.5 | 0.0098 | 0.001 | CCNC(=O)c1cc2c(-c3cc(S(=O)(=O)CC)ccc3Oc3c(C)cccc3Br)cn(C)c(=O)c2[nH]1 | –

The next lines start with the molecule.

Row | SMILES | CL free [1] [mL/min/kg] | CL free [2] [mL/min/kg] | CL free [3] [mL/min/kg] | IC50 [4] [µM] | Ki [5] [µM] | Papp [6] [×10⁻⁶ cm/s] | IC50 [7] [µM] | Ki [8] [µM] | inhibition [9]
13 | Cc1cc(F)cc(C)c1Oc1ccc(C(C)(C)O)cc1-c1cn(C)c(=O)c2[nH]c(C(=O)NC3(C)CC3(F)F)cc12 (centres undefined) | 3500 | 1400 | 1120 | 2.9 | 0.78 | 0.76 | 0.066 | 0.002 | –
14 | CCNC(=O)c1cc2c(-c3cc(C4(O)CCOCC4)ccc3Oc3c(C)cc(F)cc3C)cn(C)c(=O)c2[nH]1 | 1670 | 817 | 8670 | 2.1 | 0.3 | 1.47 | 0.0067 | 0.0012 | –
15 | CCS(=O)(=O)Nc1ccc(Oc2ccc(F)cc2F)c(-c2cn(C)c(=O)c3[nH]ccc23)c1 | – | – | – | – | – | – | – | – | Active
16 | CCNC(=O)c1cc2c(-c3cc(S(=O)(=O)CC)ccc3-c3ccccc3C)cn(C)c(=O)c2[nH]1 | 750 | 350 | 112 | 2.6 | 0.18 | 10.3 | 0.0095 | 0.0011 | –
17 | CCNC(=O)c1cc2c(-c3ccccc3Cc3c(C)cccc3C)cn(C)c(=O)c2[nH]1 | 38300 | 21700 | 5330 | 4.2 | 2.1 | 3.81 | 0.15 | 0.025 | –
18 | CCNC(=O)c1cc2c(-c3cc(C4(O)CCC4)ccc3Oc3c(C)cc(F)cc3C)cn(C)c(=O)c2[nH]1 | 15700 | 6330 | 5830 | 2.2 | 0.22 | 1.56 | 0.026 | 0.0015 | –
19 | CCNC(=O)c1cc2c(-c3cc(S(=O)(=O)CC)ccc3-c3cccc4cc[nH]c34)cn(C)c(=O)c2[nH]1 | 517 | 233 | 140 | 3.9 | 0.17 | 3.5 | 0.034 | 0.0009 | –
20 | CNC(=O)c1cc2c(-c3cc(C(C)(C)O)ccc3Oc3c(C)cc(F)cc3C)cn(C)c(=O)c2[nH]1 | 550 | 167 | 400 | 1.2 | 0.14 | 0.55 | 0.013 | 0.001 | –
21 | Cc1cccc(C)c1Oc1ccc(C(C)(C)O)cc1-c1cn(C)c(=O)c2[nH]c(C(=O)NC(C)(C)C)cc12 | 4330 | 3000 | 783 | 1.4 | 0.22 | 1.26 | 0.014 | 0.0011 | –
22 | CCNC(=O)c1cc2c(-c3cc(S(=O)(=O)CC)ccc3-n3ccc4cccc(C)c43)cn(C)c(=O)c2[nH]1 | 1830 | 1550 | 700 | 1.9 | 0.38 | 14.7 | 0.023 | 0.0011 | –
